Test results reported in article PMC4016139, “Inhibition of K^+ Transport through Na^+, K^+-ATPase by Capsazepine: Role of Membrane Span 10 of the α-Subunit in the Modulation of Ion Gating” (PLoS ONE, 2014).

Tested on: T1, Na+,K+-ATPase of adult rat ventricular myocytes
T1 construct: gene Atp1a1; native pump in isolated adult male ventricular myocytes, whole-cell patch clamp; with Sodium/potassium-transporting ATPase subunit beta-1
Assay: whole-cell ruptured-patch pump current (K+-dependent Ip)
Type: cell-based
Details: 10 min perfusion, 5 mM external K+, 140 mM NaCl, pH 7.2, 35 °C

Q: Oc1cc2c(cc1O)CN(C(=S)NCCc1ccc(Cl)cc1)CCC2 [Capsazepine] was tested. Which “% inhibition at 30 μM” value did it give?
A: The value was 85%.
